Values joined by “and” are separate entries in the source; they are usually repeats but may differ in a detail not shown here. Equal entries are not always repeated. Where two headings read alike, the source gives them in different places.
Tests used:
[1] = system: Sarcoma 180 cells; assay: Cytotoxicity study against Sarcoma 180 cells in vitro; format: cell-based, murine; settings: Sarcoma 180 (in vitro)
Description: Before entering into the in vivo experiments with solid transplantable tumour model of sarcoma 180, the drug's efficacy was tested against the same tumor cell in vitro.

[2] = system: HeLA: Cervical Cancer Cell with unstable P53; assay: Cytotoxicity against cancer cell lines: HeLA; format: cell-based
Description: (§1) Cancer cell lines with functional or disrupted p53 expression were maintained in ATCC recommended culture media supplemented with 10% FBS, 100 μg/ml streptomycin and 50 units/ml penicillin, at 37° C. in a humidified incubator containing 5% CO2. For experiments, cells (10^6) were plated with 2% serum and then the required experiments were performed. […] Simultaneously, the effect of the compound was also investigated in one p53 mutated breast cancer cell line and in one cervical cancer cell line with disrupted p53 pathway.

[3] = system: human PBMC; assay: Cytotoxicity (cell viability) of M2 against human PBMC; format: cell-based; settings: highest dose 30 μM
[4] = system: A 549: Lung Cancer cell with wild type p53; assay: Cytotoxicity against cancer cell lines: A 549; format: cell-based
Description: as §1

[5] = system: bone marrow cells; format: in vivo; settings: EAC tumor bearing mice
Excerpt: (§2) The cells were resuspended in RPMI-1640.

[6] = system: human PBMC; assay: Cytotoxicity (cell viability) of M2 against human PBMC; format: cell-based; settings: for Total Cell Count (% survival): mean ± SD of five experiments
Description: Peripheral blood mononuclear cells (PBMC) were isolated from normal human blood and were maintained in RPMI supplemented with 10% FBS, 100 μg/ml streptomycin and 50 units/ml penicillin, at 37° C. in a humidified incubator containing 5% CO2. […] The doses that were tested ranged between 0.5433×10^−7 μM to 35 μM.

[7] = Description: (§3) The homogenate was then centrifuged at 10,000 g at 4° C. for 20 mins.
The amount of malondialdehyde was measured by reaction with thiobarbituric acid at 532 nm using spectrophotometer. MDA levels were calculated using the standard curve of malondialdehyde and its level expressed in nM/mg of protein.

[8] = system: bone marrow cells; format: in vivo, Swiss albino mice; settings: S-180 tumor bearers
Excerpt: as §2

[9] = system: S-180 tumor cells; assay: Comet assay in sarcoma tumor cells from treated mice (apoptosis); format: in vivo, Swiss albino mice; settings: S-180 bearing mice, vs untreated sarcoma control
Description: Comet assay is a sensitive, reliable, and rapid method for DNA damage evaluation. The segmented DNA emigrates from the nucleus towards the anode under an electrical current to produce comets. About 400 μl of the cell suspension was mixed with 800 μl 1% low melting point agarose. Then 100 μl of the mixture was layered on slides precoated with a 1% normal melting point agarose and then covered with a cover slip. The slides were then placed in a refrigerator for 5 min. Then cover slips were carefully removed and the slides were left in a dark place except for the positive control slides. The positive control slides were treated with 200 μM H2O2 solution for 17 min at 4° C., while the negative control slides remained untreated. Then all the slides were immersed in cold lysis solution (2.5 M NaCl, 100 mM EDTA, 0.2 M NaOH, 10 mM Tris, 1% Triton X-100, pH=10), protected from light and refrigerated at 4° C. for 45 min. Slides were then left in freshly prepared electrophoresis solution (0.3 M NaOH, 1 mM EDTA, pH>13,) for 40 min. Electrophoresis was performed using the same solution at 300 mA, 25 V for 45 min. After electrophoresis the slides were neutralized gently with 0.4 M Tris buffer at pH 7.5 for 10 min and stained with 20 μg/ml ethidium bromide for 7 min. […] Comets were counted in four to five different fields of a section, and data are summarized in terms of percent comet. […]

[10] = system: PCNA; assay: Western blot of PCNA in bone marrow; format: in vivo, Swiss albino mice; settings: all M2 treated groups, compared to sarcoma control
Description: (§4) Cell lysates were obtained and equal amounts of protein from each sample were diluted with loading buffer, denatured, and separated by 10% sodium dodecyl sulfate-polyacrylamide gel electrophoresis (SDS-PAGE) followed by protein transfer to polyvinylidene fluoride membranes (PVDF). […] Proteins were detected by incubation with corresponding primary antibodies (anti p53, anti-p21, anti-Nrf-2, anti-ERK3 and anti-PCNA) antibodies followed by blotting with AP-conjugated secondary antibody. The blots were then exposed to NBT/BCIP substrate for detection. This analysis was performed three times.

[11] = system: HepG2: Liver Cancer cell with wild type p53; assay: Cytotoxicity against cancer cell lines: HepG2; format: cell-based
Description: as §1

[12] = target: G-Quadruplex 5′-TAGGG(TTAGGG)3-3′; assay: Fluorescence emission titration with G-Quadruplex; settings: read-out: equilibrium dissociation constant (KD); from change in fluorescence emission maxima of G-Quadruplex
Description: The emission spectra of a DNA duplex and G-Quadruplex sequence were recorded at room temperature using Hitachi spectrometer (F-700 FL spectrophotometer) with one cm path-length quartz cuvette. The emission spectrum was recorded from 300-500 nm with an excitation wavelength of 260 nm. Excitation and emission slits were set to 5 nm each. Emission spectra were recorded by titrating small molecules up to 50 μM concentration against 10 μM G-Quadruplex and duplex DNA.

[13] = system: MDA MB 231 (p53 mutated); assay: Cell cycle analysis of M2 treated p53 mutated breast cancer cell line (PI flowcytometry); format: cell-based; settings: 12 hour exposure
Description: Cell cycle analyses were performed with the p53 mutated breast cancer cell line to explore deeper into the probable mechanism. […] For experiments, cells (10^6) were plated with 2% serum and then the required experiments were performed. Cells were harvested after 12 hour exposure with the compound at varying concentrations and cell cycle phase distribution of nuclear DNA was determined by flowcytometry using propidium iodide (PI) as DNA-binding fluorochrome.
Analyses of the cells in sub GO phase and S/G2/M are given as mean±Standard Deviation of five independent experiments.

[14] = system: PCNA; assay: Western blot of PCNA in tumor tissue; format: in vivo, Swiss albino mice; settings: S-180 tumor tissue
Description: as §4

[15] = system: MCF-7: Breast Cancer cell with p53 wild type; assay: Cytotoxicity against cancer cell lines: MCF-7; format: cell-based
Description: as §1

[16] = system: MDA MB 231: Breast Cancer cell with p53 mutation; assay: Cytotoxicity against cancer cell lines: MDA MB 231; format: cell-based
Description: as §1

[17] = Serum biochemical markers of toxicity (ALT, AST, ALP, creatinine); format: in vivo, Swiss albino mice; settings: all M2 treated groups except the highest dose (40 μM)
Description: Alanine aminotransferase (ALT), aspartate aminotransferase (AST), alkaline phosphatase (ALP) and creatinine levels were measured from collected sera using kits (Sigma).

[18] = system: S-180 tumor cells
Excerpt: (§5) For the determination of cell cycle phase distribution of nuclear DNA, cells from bone marrow and tumor tissue (1×10^6 cells) were harvested from tumor bearing untreated and treated mice.

[19] = system: bone marrow cells
Excerpt: as §5

[20] = system: Nrf-2; assay: Western blot of Nrf-2 in liver; format: in vivo, Swiss albino mice; settings: S-180 tumor bearers, compared to sarcoma control
Description: as §4

[21] = system: Ehrlich's ascites carcinoma (EAC); assay: Ehrlich's ascites carcinoma (EAC) tumor model: tumor volume and cell count; format: in vivo; settings: EAC bearing mice, 35 μM, vs EAC control and cyclophosphamide treated
Excerpt: Ehrlich's ascites carcinoma (EAC) cells were maintained by serial intra-peritoneal passage of 10^5 cells per mice. EAC cells were collected from tumor-bearing mice at the exponential phase of growth, roughly 7 days after tumor transplant. The cells were drawn out aseptically with the help of a fine needle. The cells were washed in PBS and counted with the help of a Hemocytometer by the Trypan Blue dye exclusion test. The cells were suspended in PBS and inoculated into the next batch of mice.

[22] = system: SOD, CAT and GST
Description: as §3
Briefly, assay mixture consists of 3 mL of H2O2 phosphate buffer and 0.05 mL of the supernatant of the tissue homogenate. The change in absorbance was recorded for 2 min at 30 s interval at 240 nm using spectrophotometer.
One unit of enzyme activity is defined as the amount of enzyme necessary for inhibiting the reaction by 50%. Auto oxidation of Pyrogallol in Tris-HCL buffer (50 mM, pH 7.5) is measured by increase in absorbance at 420 nm.

[23] = system: ERK; assay: Western blot of ERK in tumor tissue; format: in vivo, Swiss albino mice; settings: S-180 tumor tissue, compared to sarcoma control and cyclophosphamide treated groups
Description: as §4

[24] = S-180 tumor bearers, cyclophosphamide treatment

In the case of `CN(CCC#N)c1ccc(C=NCCCN=Cc2ccc(N(C)CCC#N)cc2)cc1` [M2, Bis(3-[4-({[3-({4-[(2 cyanoethyl)(methyl)amino]benzylidene}amino)propyl]imino}methyl)(methyl)anilino]propanenitrile)], the “Death Percentages” value ([1]; dose 15 μM) is reported as 36.67 ± 6.12%, the “Death Percentages” value ([1]; dose 20 μM) is reported as 50.33 ± 5.03% and the “Death Percentages” value ([1]; dose 25 μM) is reported as 57.33 ± 4.16%. The “Death Percentages” value ([2]; dose 15 μM) was 20.5 ± 4.20%, the “Death Percentages” value ([2]; dose 20 μM) was 37.75 ± 5.44% and the “Death Percentages” value ([2]; dose 25 μM) was 46.75 ± 5.38%. The “cytotoxic effect on human PBMC” value [3] was “cytotoxic effect”, the “Death Percentages” value ([4]; A 549, dose 15 μM) was 26 ± 4.32% and the “Death Percentages” value ([4]; A 549, dose 20 μM) was 34.25 ± 4.35%. The “Death Percentages” value ([4]; A 549, dose 25 μM) was 47.75 ± 6.34%, the “effect on bone marrow (cell count)” value [5] was “protective effect” and the “effect on the viability of human PBMC” value ([6]; doses 0.1 to 25 μM) was “negligible effect”. The “PBMC that could not survive the treatment” value ([6]; human PBMC, 35 μM, 12 hours) was roughly 25%, the “Total Cell Count (% survival)” value ([6]; human PBMC, dose 1 μM) was 90.67 ± 2.16% and the “Total Cell Count (% survival)” value ([6]; human PBMC, dose 5 μM) was 89.50 ± 1.05%. The “Total Cell Count (% survival)” value ([6]; human PBMC, dose 10 μM) was 88.67 ± 1.75%, the “Total Cell Count (% survival)” value ([6]; human PBMC, dose 15 μM) was 88.83 ± 1.47% and the “Total Cell Count (% survival)” value ([6]; human PBMC, dose 20 μM) was 87.33 ± 1.97%. For the same compound, the “Total Cell Count (% survival)” value ([6]; human PBMC, dose 25 μM) was 85.17 ± 1.94%, the “Total Cell Count (% survival)” value ([6]; human PBMC, dose 30 μM) was 77.67 ± 3.44% and the “hepatic LPO levels (oxidative stress)” value ([7]; mouse, in vivo) was “significant decrease”. The “bone marrow cell count / bone marrow suppression” value [8] was “did not cause bone marrow suppression”, the “DNA damage in tumor cells (percentage of comet cells per field)” value [9] was “significant DNA damage” and the “PCNA expression in bone marrow” value [10] was “significant increase”. For the same compound, the “Death Percentages” value ([11]; HepG2, dose 15 μM) was 20.75 ± 5.25%, the “Death Percentages” value ([11]; HepG2, dose 20 μM) was 38.5 ± 6.25%, and the “Death Percentages” value ([11]; HepG2, dose 25 μM) was 55.86 ± 7.12%. For the same compound, the Kd [12] was 31 ± 1.2 µM, the “% S/G2/M as from cell cycle analysis” value ([13]; MDA MB 231, dose 15 μM) was 10.76 ± 1.38% and the “% Sub G0 as from cell cycle analysis” value ([13]; MDA MB 231, dose 15 μM) was 16.08 ± 2.28%. For the same compound, the “% S/G2/M as from cell cycle analysis” value ([13]; MDA MB 231, dose 20 μM) was 12.09 ± 1.77%, the “% Sub G0 as from cell cycle analysis” value ([13]; MDA MB 231, dose 20 μM) was 27.38 ± 2.28% and the “% S/G2/M as from cell cycle analysis” value ([13]; MDA MB 231, dose 25 μM) was 16.94 ± 4.82%. For the same compound, the “% Sub G0 as from cell cycle analysis” value ([13]; MDA MB 231, dose 25 μM) was 30.50 ± 4.96%, the “PCNA expression in tumor tissues” value [14] was “decrease” and the “Death Percentages” value ([15]; MCF-7, dose 15 μM) was 23.00 ± 7.26%. The “Death Percentages” value ([15]; MCF-7, dose 20 μM) was 32.5 ± 2.89%, the “Death Percentages” value ([15]; MCF-7, dose 25 μM) was 41.5 ± 2.65% and the “Death Percentages” value ([16]; MDA MB 231, dose 15 μM) was 36.50 ± 5.00%. The “Death Percentages” value ([16]; MDA MB 231, dose 20 μM) was 47.00 ± 6.78%, the “Death Percentages” value ([16]; MDA MB 231, dose 25 μM) was 60% and 60.25 ± 9.03% and the “Serum ALT, AST, ALP values and creatinine levels” value [17] was “within the normal range”. The “hypoploid cells (sub-G0 region) of tumor cells” value ([18]; mouse, in vivo) was 39.94% and 69.2% and 41.5%, the “proliferative stage (sum of S and G2/M) of tumor cells” value ([18]; mouse, in vivo) was “distinctive depression” and the “bone marrow hypoploidy peak” value ([19]; mouse, in vivo) was 5.4%. For the same compound, the “bone marrow proliferative phase” value ([19]; mouse, in vivo) was “did not decrease”, the “Nrf-2 expression in the liver” value [20] was “increased” and the tumor cell count [21] was “significant reduction”. For the same compound, the tumor volume [21] was “significant reduction”, the “activity of hepatic anti-oxidant enzymes SOD, CAT and GST” value ([22]; mouse, in vivo) was “increase” and the “expression of ERK in tumor tissues” value [23] was “significantly reduce”.
For `O=P1(N(CCCl)CCCl)NCCCO1` (stereo not shown) [cyclophosphamide, reference compound], the “effect on bone marrow (cell count)” value [5] was “induces myelosuppression”, the “hepatic LPO levels (oxidative stress)” value ([7]; liver of S-180 tumor bearers, vs sarcoma control) was “further enhanced” and the “bone marrow cell count / bone marrow suppression” value [8] was “significant depression”. For the same compound, the “hypoploid cells (sub-G0 region) of tumor cells” value ([18]; S-180 bearing mice, cyclophosphamide treated group) was 42.1%, the “bone marrow hypoploidy peak” value [19, 24] was 48.5% and the “bone marrow proliferative phases (S and G2/M combined)” value [19, 24] was 3%. For the same compound, the “activity of hepatic anti-oxidant enzymes SOD, CAT and GST” value ([22]; liver of S-180 tumor bearers, vs normal and sarcoma control) was “depression”.

Source: patent US9682926B2, “Cancer chemotherapeutic agent/formulation, manufacture and use thereof” (Bose Institute, priority 2012, dated 2017)
